Test results published in patent EP4813991A1 (iLeadBMS Co., Ltd., priority 2023, dated 2025).

How the values were obtained:
A427 cells = test: Lung cancer cell proliferation inhibitory activity, A427; assay type: cell-based; conditions: Homo sapiens, A-427; 72 hours, Cell Counting Kit-8, relative IC50
Method: Experiments were performed using three types of lung cancer cell lines to measure the cell proliferation inhibitory ability of the compounds of the present invention. NCI-H23 and NCI-H358 cells were dispensed into a 96-well plate at 100 µL of cell suspension per well using RPM11640 medium containing 10 % FBS and 1 % PS, followed by incubation in a cell incubator at 37 °C and 5 % CO2. A427 cells were dispensed into a 96-well plate at 100 µL of cell suspension per well using DMEM medium containing 10 % FBS and 1 % PS, followed by incubation in a cell incubator at 37 °C and 5 % CO2. The next day, each Example compound (such as Example 8) dissolved and diluted in DMSO across 10 concentration ranges and a DMSO control group were treated on the cells for 72 hours. After completion of the compound treatment, 10 µL of Cell Counting Kit-8 (Dojindo) reagent was added to each well of the 96-well plate, followed by incubation for 2 hours. After inserting the 96-well plate into an Envision plate reader […], luminescence signals were measured. Relative IC50 values were calculated by fitting a dose-response curve using Graphpad PRISM software.
The lung cancer cell proliferation inhibitory activities of the Example compounds measured by the method described above were evaluated according to the following criteria, and the results are presented in Table 17.

MIA-PaCa2-Control = test: Pancreatic cancer cell proliferation inhibitory activity, MIA-PaCa2-Control; assay type: cell-based; conditions: 72 hours, Cell Counting Kit-8, relative IC50
Method: Experiments were performed using three types of pancreatic cancer cell lines to measure the cell proliferation inhibitory ability of the compounds of the present invention. AsPC-1, MIA-PaCa2-Control, and Gemcitabine resistant-MIA-PaCa2 cells were dispensed into a 96-well plate at 100 uL of cell suspension per well using DMEM medium containing 10 % FBS and 1 % PS, followed by incubation in a cell incubator at 37 °C and 5 % CO2. The next day, the compound of Example 8 dissolved and diluted in DMSO across 10 concentration ranges and a DMSO control group were treated on the cells for 72 hours. After completion of the compound treatment, 10 µL of Cell Counting Kit-8 (Dojindo) reagent was added to each well of the 96-well plate, followed by incubation for 2 hours. […] were measured after inserting the 96-well plate into an Envision plate reader […]. Relative IC50 values were calculated by fitting a dose-response curve using Graphpad PRISM software.
The pancreatic cancer cell proliferation inhibitory activities of the Example compounds measured by the method described above were evaluated according to the following criteria, and the results are presented in Table 18.

LoVo = test: Colorectal cancer cell proliferation inhibitory activity, LoVo; assay type: cell-based; conditions: Homo sapiens, 72 hours, Cell Counting Kit-8, relative IC50
Method: (§1) Experiments were performed using seven types of colorectal cancer cell lines to measure the cell proliferation inhibitory ability of each Example compound. DLD-1, LoVo, SW620, SW480, HCT116, HCT15, and HT29 cells were dispensed into a 96-well plate at 100 µL of cell suspension per well using RPMI1640 medium containing 10 % FBS and 1 % PS, followed by incubation in a cell incubator at 37 °C and 5 % CO2. The next day, each Example compound dissolved and diluted in DMSO across 10 concentration ranges and a DMSO control group were treated on the cells for 72 hours. After completion of the compound treatment, 10 µL of Cell Counting Kit-8 (Dojindo) reagent was added to each well of the 96-well plate, followed by incubation for 2 hours. […] were measured after inserting the 96-well plate into an Envision plate reader […]. Relative IC50 values were calculated by fitting a dose-response curve using Graphpad PRISM software.
The colorectal cancer cell proliferation inhibitory activities of the Example compounds measured by the method described above were evaluated according to the following criteria, and the results are presented in Table 19.

KATO-III = test: Gastric cancer cell proliferation inhibitory activity (Cell Counting Kit-8), KATO-III; assay type: cell-based; conditions: Homo sapiens, 72 hours, Cell Counting Kit-8, relative IC50
Method: as §1, with “six” for “seven”, “gastric” for “colorectal”, “NCI-N87, SNU601, KATO-III, MKN1,” for “DLD-1, LoVo, SW620, SW480, HCT116, HCT15,”, “AGS” for “HT29”, “RPMI1640 medium containing 10 % FBS and 1 % PS, followed by incubation in a cell incubator at 37 °C and 5 % CO2. HS746T cells were dispensed into a 96-well plate at 100 µL of cell suspension per well using DMEM” for “RPMI1640”
(§2) The gastric cancer cell proliferation inhibitory activities of the Example compounds measured by the method described above were evaluated according to the following criteria, and the results are presented in Table 20.

HS746T cells = test: Gastric cancer cell proliferation inhibitory activity (Cell Counting Kit-8), HS746T; assay type: cell-based; conditions: Homo sapiens, 72 hours, Cell Counting Kit-8, relative IC50
Method: as §1, with “six” for “seven”, “gastric” for “colorectal”, “NCI-N87, SNU601, KATO-III, MKN1,” for “DLD-1, LoVo, SW620, SW480, HCT116, HCT15,”, “AGS” for “HT29”, “RPMI1640 medium containing 10 % FBS and 1 % PS, followed by incubation in a cell incubator at 37 °C and 5 % CO2. HS746T cells were dispensed into a 96-well plate at 100 µL of cell suspension per well using DMEM” for “RPMI1640”
as §2

[1] = test system: HCC70 breast cancer cells; test: Zebrafish xenograft breast cancer model (HCC70); assay type: in vivo; conditions: 48 hours, compared to the vehicle, FIG. 6
Method: Transgenic Tg(fli1:EGFP)y1 zebrafish embryos were cultured in E3 embryo medium with 0.2 mM 1-phenyl-2-thiourea (PTU) at 28 °C for 48 hours. HCC70 breast cancer cells were cultured using RPMI-1640 medium supplemented with 10 % FBS, and AGS gastric cancer cells were cultured using F-12K medium supplemented with 10 % FBS. Each cell was collected, labeled with Dil red fluorescent dye, and then subcutaneously transplanted into 2-day-old zebrafish embryos. After selecting embryos with tumors, they were classified into experimental groups (20 embryos per group), and each Example compound dissolved and diluted in DMSO across 2 to 3 concentration ranges, a DMSO control group, or a comparative compound were added, followed by incubation at 35.5 °C for 48 hours or 72 hours. In the breast cancer model, primary tumors were collected immediately after transplantation (Day 0) and after 48 hours (Day 2), and in the gastric cancer model, primary tumors were obtained immediately after transplantation (Day 0) and after 72 hours (Day 3). Images of the collected tumors were analyzed for reduction in tumor size compared to the DMSO control group using image software, and the number of disseminated cancer cells after 3 days was manually counted through the captured images, with the results shown in FIGs. 6, 7, and 8. […]

CN1CCN(c2cc(NCc3nc4ccc(F)c(F)c4[nH]3)c3ncc(C(F)(F)F)n3n2)CC1 [Example 8, N-((6,7-difluoro-1H-benzo[d]imidazol-2-yl)methyl)-6-(4-methylpiperazin-1-yl)-3-(trifluoromethyl)imidazo[1,2-b]pyridazin-8-amine]
IC50 (A427 cells): ≤ 200 nM
IC50 (MIA-PaCa2-Control): ≤ 200 nM
IC50 (LoVo): ≤ 200 nM
IC50 (KATO-III): ≤ 200 nM
IC50 (HS746T cells): ≤ 200 nM

N#CC1CN(c2cc(NCc3nc4cc(Cl)c(Cl)cc4[nH]3)c3ncc(C(F)(F)F)n3n2)C1 [Example 30, 1-(8-(((5,6-dichloro-1H-benzol[d]imidazol-2-yl)methyl)amino)-3-(trifluoromethyl)imidazo[1,2-b]pyridazin-6-yl)azetidine-3-carbonitrile]
reduction in tumor size [1]: dose-dependent reduction in tumor size
